Counter-ions that a name gives are not always drawn. Like-named read-outs stand apart in the source and are kept apart here.
How the values were obtained:
Varroa destructor = settings: for mortality for Varroa mites: after 24 hours
Procedure: About 300 bees (Apis mellifera) infected with Varroa destructor were taken from a hive superinfected with Varroa destructor. The bees were then placed in a device allowing to detach Varroa mites attached to the bees (device described in Community model n° 003419415-0001) filled with icing sugar. The device was stirred for 2 minutes to sample the Varroa mites attached to the bees. The icing sugar allows to interfere between the bee and the Varroa mite that was attached thereto. Varroa mites were harvested with icing sugar because they pass through the holes in the device, unlike bees. The Varroa mites were then separated from the icing sugar.
The Varroa mites thus recovered were dispatched in boxes (10 Varroa mites per box).
The bees were then dispatched in the boxes (10 per box).
The bees were then put to sleep for a few minutes using CO2 (flow of 3 liters for 20 seconds) in order to deposit 1 μL of compound to be tested on their thorax using a pipette. It should be noted that the bees which received romifidine hydrochloride at a concentration of 10 μg/μL received 2 μL of product. The bees were unconscious for the time the compound to be tested was deposited, that is to say around three minutes, then they woke up.
After thoracic deposition of the compound to be tested, the 10 bees from the same box were transferred to a box containing the 10 Varroa mites (cf. “Preparation of Varroa mites” above). Liquid sugar was left in each of the boxes to feed the bees during the observations. The series of boxes was then placed in an oven at […] with a humidity of 50% in order to approximate hive conditions as closely as possible.
The mortality of Varroa mites and bees was then monitored 5 minutes, 2 hours, 4 hours and 24 hours after application of the compound to be tested to the bees. Dead Varroa mites correspond to Varroa mites detached from the bees. Dead bees correspond to bees which no longer move and which are often placed on their thorax.
The following compositions were applied to the thorax of the bees: • Solvent, • Amitraz at 1 μg/μL in acetone, • Clonidine hydrochloride at 100 μg/μL, 10 μg/μL, 1 μg/μL and 0.1 μg/μL in methanol, • Detomidine hydrochloride monohydrate at 1 μg/μL in methanol, • Dexmedetomidine hydrochloride at 100 μg/μL, 10 μg/μL, 1 μg/μL and 0.1 μg/μL in methanol, • Romifidine hydrochloride at 10 μg/μL and at 5 μg/μL in methanol, • Tizanidine hydrochloride at 1 μg/μL in methanol, • Medetomidine hydrochloride at 0.1 μg/μL in ethanol, • Levomedetomidine hydrochloride at 100 μg/μL, 10 μg/μL, 1 μg/μL and 0.1 μg/μL in methanol, • Octopamine at 1 μg/μL in ethanol. Results

Rhipicephalus sanguineus = test: Topical acaricidal test on brown dog ticks; format: in vivo; settings: 168 h, 0.5 μl per tick, after 7 days of treatment; for mortality at 1 ppm: 1 ppm topical; for mortality at 10 ppm: 10 ppm topical; for mortality at 100 ppm: 100 ppm topical; for mortality at 1000 ppm: 1000 ppm topical
Procedure: Brown dog ticks, Rhipicephalus sanguineus, of 2nd stage, from a single cohort were used.
Three (3) compounds were tested, as well as a reference compound (Amitraze). For each compound tested and Amitraz, four doses (1000, 100, 10 and 1 ppm) were applied to the ticks topically. A negative control (acetone) and an untreated group were included for comparison. The experiments were carried out in triplicate.
Ten ticks were placed in a clear plastic container, measuring approximately 120 mm in diameter and 45 mm in height. The ticks were then anesthetized by direct exposure (for 10 seconds) to carbon dioxide. The treatments were then applied to the back (scutum) of each tick, using a Hamilton syringe, up to 0.5 μl of treatment per tick (1 application).
Cotton soaked in water was placed in each container to provide humidity throughout the experiment. The container was also vented throughout the experiment with a tube to introduce air into each container. The containers were maintained at a temperature of 23±3° C. Live, shocked and dead tick counts were taken daily after treatment for 7 days.
The averages in percentage of each evaluation category (healthy, knocked down and dead) were calculated, as well as the standard error. An analysis of variance (ANOVA) was performed using Minitab software, 16th edition.

Q: What does the source list for `Cc1cccc(C(C)c2cnc[nH]2)c1C` (racemic) [Medetomidine hydrochloride]?
A: Varroacid effect (in words) (Varroa destructor; 0.1 μg/μL in ethanol): very effective; mortality at 1 ppm (Rhipicephalus sanguineus): 26.7%; mortality at 10 ppm (Rhipicephalus sanguineus): 66.7%; mortality at 100 ppm (Rhipicephalus sanguineus): 93.3%; mortality at 1000 ppm (Rhipicephalus sanguineus): 100%

Q: Which “Varroa mites killed / mortality for Varroa mites” value (Varroa destructor; 1 μg/μL, 1 μL on bee thorax, time not stated (monitored up to 24 hours)) does the source give for `Cc1ccc(/N=C/N(C)/C=N/c2ccc(C)cc2C)c(C)c1` [Amitraz] here?
A: The value was 100%.

Q: What about the mortality at 1 ppm (Rhipicephalus sanguineus) of the same compound?
A: Its mortality at 1 ppm is 30%.

Q: What about the mortality at 10 ppm (Rhipicephalus sanguineus) of the same compound?
A: Its mortality at 10 ppm is 46.7%.

Q: What about the mortality at 100 ppm (Rhipicephalus sanguineus) of the same compound?
A: Its mortality at 100 ppm is 96.7%.

Q: What about the mortality at 1000 ppm (Rhipicephalus sanguineus) of the same compound?
A: The mortality at 1000 ppm was 100%.

Q: What does the source list for `Cc1cccc(Cc2cnc[nH]2)c1C` [Detomidine hydrochloride, 4-[(2,3-dimethylphenyl)-methyl]-3H-imidazole]?
A: mortality at 1 ppm (Rhipicephalus sanguineus): 26.7%; mortality at 10 ppm (Rhipicephalus sanguineus): 23.3%; mortality at 100 ppm (Rhipicephalus sanguineus): 50%; mortality at 1000 ppm (Rhipicephalus sanguineus): 100%

Q: For `Cc1cccc([C@H](C)c2c[nH]cn2)c1C` [Dexmedetomidine hydrochloride, (S)-4-[1-(2,3-dimethylphenyl)-ethyl]-1H-imidazole], which “mortality for Varroa mites” value (Varroa destructor; 0.1 μg/μL) is on record?
A: Its value is 100%.

Q: What about the “mortality for Varroa mites” value (Varroa destructor; 10 μg/μL) of the same compound?
A: Its value is 100%.

Q: What about the mortality at 1 ppm (Rhipicephalus sanguineus) of the same compound?
A: Its mortality at 1 ppm is 20%.

Q: And the mortality at 10 ppm (Rhipicephalus sanguineus)?
A: The mortality at 10 ppm was 93.3%.

Q: What about the mortality at 100 ppm (Rhipicephalus sanguineus) of the same compound?
A: Its mortality at 100 ppm is 100%.

Q: And the mortality at 1000 ppm (Rhipicephalus sanguineus)?
A: Its mortality at 1000 ppm is 100%.
